Source: a melting point compilation (Tetko et al.; mined from patent text by program, amines drawn as free bases though some values may be those of a salt)
Residues, ends and D or L forms follow the SMILES beside them. *: point of attachment. For = O=C*

Structure (SMILES)	melting point
O=C1c2ccccc2C(=O)N1CC(=O)N1c2ccccc2N(Cc2ccccc2)C(=O)[C@H]2CCC[C@H]21 (relative stereo)	247 to 249 °C
C(=Nc1c2c(nc3ccccc13)CCCC2)c1cccc2ccccc12	229 to 231 °C
COc1ccc2c(c1)-c1nc(-c3ccccc3C)c(N)n1CC2	160 °C
Cn1nnnc1S(=O)(=O)CCCCS(=O)(=O)c1nnnn1C	192 to 194 °C
O=c1[nH]c2cc(Cl)ccc2c(=O)n1S(=O)(=O)c1ccc([N+](=O)[O-])cc1	> 250 °C
CCC1(CC)C(=O)N(CC(O)Cc2cc(C)c(O)c(C(C)(C)C)c2)C(=O)N(CC(O)Cc2cc(C)c(O)c(C(C)(C)C)c2)C1=O (stereo not drawn)	147 to 148 °C
Ic1cnc(-c2ccccn2)[nH]1	175 to 179 °C
CCc1[nH]n(-c2c(Cl)cc(Cl)cc2Cl)c2nc(Cc3cccc(OC)c3)nc(=O)c1-2	235 to 238 °C
C=CC(COC(c1ccccc1)(c1ccccc1)c1ccccc1)OCCCCCCCCCCCCCCCC (stereo not drawn)	34 °C
C=C1NC(=O)N(Cc2ccccc2)C1=N	139 to 141 °C
COc1ccc(C2=NN(C3CCN(S(=O)(=O)c4ccccc4C)CC3)C(=O)C(C)(C)C2)cc1OC	132 to 133 °C
NC(=O)c1cccc2c1CC(N(CCCc1c[nH]c3ccc(F)cc13)C1CCC1)CO2 (stereo not drawn)	102 to 105 °C
Cn1c2ccc(C=O)cc2c2nc3ccccc3nc21	228 to 230 °C
CCCN(CC)S(=O)(=O)NC(=S)N1CC(c2ccccc2)C(c2ccc(Cl)cc2)=N1 (stereo not drawn)	144 to 146 °C
CCCCCCCCCCCCCCCC(=O)OC(CCCCCCCCCCCCCC)C(=O)N[C@H](C(=O)N[C@@H](CCC(=O)O)C(=O)O)C(C)C (stereo partly drawn)	101 to 103 °C
O=C(NCc1ccc(F)cc1)N1CCC(Oc2ccc(CCNC[C@H](O)COc3ccc(O)cc3)cc2)CC1	126 to 128 °C
C=CCNC1=NS(=O)(=O)N=C1NCCSCc1ccc(CN(C)C)o1	83 to 86 °C
CCOC(=O)c1cnc2cc(C)nn2c1N(C)S(=O)(=O)c1ccc(Oc2ccncc2)cc1	139 to 144 °C

Structure (SMILES)	melting point
COC(=O)C(Cc1ccc(OCc2nc3ccc(Oc4ccc(C56CC7CC(CC(C7)C5)C6)cc4)cc3n2C)cc1)OCc1ccc(F)cc1 (stereo not drawn)	118 to 120 °C
Cc1cc(C#N)sc1-c1ccc2c(c1)C(C)(C)OC(C)N2 (stereo not drawn)	145 to 146 °C
C=CCc1c(C(=O)N(C)C)cn2cc(C)nc2c1OC(=O)C(C)(C)C	178 to 180 °C
COc1ccc(/C=C(\C#N)c2ccsc2)cc1OC1CCCC1	83 to 84 °C
CCOC(=O)c1cc(OCc2ccccc2)cc(OCc2ccccc2)c1	63 to 65 °C
COc1cccc(-n2nc(Cl)cc2-c2ccc(S(C)(=O)=O)cc2)c1	103 to 104 °C
Cc1cc(C(C)(C)C)cc(C)c1Cl	39 °C
COc1ccc(-c2cc(=O)n(Cc3ccc(Cl)cc3)nc2-c2ccc(OC)cc2)cc1	124 to 127 °C
CN1CCN(c2ccc(Nc3ncc4ccc(-c5cccc(CN(C)S(C)(=O)=O)c5)n4n3)cc2)CC1	229 to 230 °C
O=C(NC(CC1CCCC1)C(=O)NC1CCCN(S(=O)(=O)c2ccccc2)CC1=O)c1ccco1 (stereo not drawn)	88 to 90 °C
c1ccc2c(c1)c1ccccc1c1[nH]cnc21	> 375 °C
O=C1Nc2ccccc2N(C(=O)CN2CCCCC2CN2CCCC2)c2cscc21 (stereo not drawn)	205 to 207 °C
Cc1cc(C)cc(-c2nc(N)sc2-c2ccncc2)c1	242 to 244 °C
N=C(N)c1ccc(-c2ccc(-c3ccc(C(=N)N)cn3)o2)cc1	232 °C
C[C@@H]1CNc2c(cccc2[N+](=O)[O-])[C@H](C)N1 (relative stereo)	62 °C
Cc1cc(=O)[nH]nc1-c1ccc2c(c1)CC1(CCN(C3CCC3)CC1)O2	243 to 245 °C
COc1cc(Nc2nccc(-c3ccc(N4CCN(CCCN5C(=O)c6ccccc6C5=O)CC4)nc3)n2)cc(OC)c1OC	105 to 106 °C
CSC(=NC#N)N1CCc2nc(NC(=N)N)sc2C1	224 to 227 °C

Second part, the compound after the results:

melting point	Structure (SMILES)
> 260 °C	CCOC(=O)c1cnc2ccc(F)cc2c1O
216 to 219 °C	COc1cc(NS(=O)(=O)c2ccc(Cl)cc2)c(C(=O)Nc2ccc(S(=O)(=O)N3CCSCC3)cc2)cc1OC
120 to 122 °C	CC(=O)CC(=O)Nc1ccc(SC(F)(F)F)cc1
252 to 254 °C	Cc1nncn1-c1ccc(Cl)cc1C(=O)O
82 to 83 °C	CC(=O)c1cccc(Oc2cccc(Cl)n2)c1
64 to 66 °C	COC(=O)CCCC(=O)c1ccc(OC)c(CCC(=O)OC)n1
140 to 142 °C	CCCCNC(=O)NS(=O)(=O)c1c(C(=O)OCC)cnn1-c1ccc2ccccc2n1
153 to 154 °C	NC(=O)CNC(=O)c1cccc(-c2cccc3cc(CCc4cccc(C(F)(F)F)c4)sc23)c1
177 to 179 °C	CN(C)C(=O)CNC(=O)c1ccc(-c2ccc3nnn(Cc4ccc5ncccc5c4)c3n2)cc1F
200 to 203 °C	CC(Oc1ncn(-c2ccc(OC(F)(F)F)cc2)n1)C(=O)O (stereo not drawn)
99 to 100 °C	CC(C)(C)NCC(O)COc1ccccc1-c1csnn1 (stereo not drawn)
194 to 195 °C	O=C(CNCc1ccccc1)CP(=O)(O)C(Cl)(Cl)Cl
194 to 195 °C	COC(=O)c1ccc2c(c1)ncn2N
90 °C	CC(C)(C)OC(=O)C(Nc1ccccc1)c1cccc(F)c1 (racemic)
180 to 182 °C	O=CNC(CC(=O)O)C(=O)NC(Cc1ccccc1)C(=O)O (stereo not drawn) (For-Asp-Phe-OH; configuration not given here)
102 to 104 °C	CC(C)OC(=O)c1ccc2c(c1)ncn2-c1cccc(Br)c1

melting point	Structure (SMILES)
202 °C	CCOc1cnc(-c2ccc(O)cc2)nc1
131 to 134 °C	C=CC[C@@H](C(=O)N[C@H](C(=O)N[C@H](C)c1ccccc1)C(C)(C)C)[C@H](OCC)C(=O)OC
90 to 91 °C	COc1ccc(NC(=O)CCl)c(OC)c1
100 to 101 °C	CC(=O)OC1(c2ccccc2)C=CC(=O)C=C1
130 to 132 °C	CSC(=N)NC(c1ccccc1)c1ccc(C)cc1 (stereo not drawn)
116 to 118 °C	CCCCC/C(=C\C=C\C(=O)O)c1ccc(F)cc1
168 to 171 °C	COc1ccc(C(=O)Nc2ccccc2)cc1NC(=O)CC(=O)OCc1ccccc1
213 to 215 °C	CC(=O)Nc1nc(CCCN2CCN(C(c3ccccc3)c3ccccc3)CC2)cs1
195 to 196 °C	CCC(C(=O)Nc1c(C)cccc1C)N1C(=O)c2ccccc2C1=O (stereo not drawn)
113 to 118 °C	COC(=O)c1c(S(C)(=O)=O)ccc(C(=O)O)c1C
55 to 58 °C	COC(=O)C1=C(O)CCc2c(OC)cccc21
164 to 168 °C	O=C(CCCOc1cccc(CNC(=O)c2nc3ccccc3c(=O)[nH]2)c1)NO
277 °C	COc1ccc(CSc2cnc(O)nc2O)cc1
295 to 297 °C	O=C(O)c1cn2c3c(cc(F)cc3c1=O)CCC2C(F)(F)F (stereo not drawn)
211 to 213 °C	CCNC(=O)Nc1nc2cc(-c3cccnc3)cc(C(=O)OC)n2n1
264 to 268 °C	O=C(O)c1cn(-c2ccc(F)cc2F)c2c(F)c(N3Cc4ccccc4C3)c(F)cc2c1=O
